This is an account of results in patent US12600696B2 (XENIOPRO GMBH, priority 2017, dated 2026).

Molecules are shown by their SMILES.

The assay deals with Notch signaling (hNotch1ΔE, human Notch1 receptor) in HeLa cells. Put plainly: Notch reporter assay (luciferase luminescence readout in transfected HeLa cells). The format is cell-based. Conditions: Homo sapiens, 20 hours, relative to DMSO baseline level of 1.0, read-out: AVEw, weighted arithmetic mean of double-normalized Notch-reporter luciferase luminescence values (Activity Range). A digest of the protocol: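 HeLa cells were transiently transfected for 24 h with membrane-tethered constitutively active hNotch1ΔE, a CSL-promoter Firefly luciferase reporter and constitutive SV40-Renilla luciferase. Compounds were then applied at 10 μM (0.1% DMSO) for 20 h. Firefly/Renilla dual-luciferase ratios were normalized to DMSO control (baseline 1.0), outliers were excluded, and replicate values were averaged across ≥3 independent experiments.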
(A reporter such as luciferase makes a cellular process visible.)
On to `NC(=O)c1ccc(Oc2ccc(C3CC4CCC3C4)cc2)cc1` (racemic) [Compound 159, (±)-4-(4-(Bicyclo[2.2.1]heptan-2-yl)phenoxy)benzamide], for which the fold induction at 10 µM fell in the range of 1.1 to 1.2.

As for `CCCc1ccc(Oc2ccc(C(=O)NO)cc2)cc1` [Compound 166, N-hydroxy-4-(4-propylphenoxy)benzamide], the fold induction at 10 µM was 1.2 to 1.3.

For the compound `CCC(C)(C)c1ccc(Oc2ccc(C(=O)NO)cc2)cc1` [Compound 171, N-hydroxy-4-(4-(tert-pentyl)phenoxy)benzamide], the fold induction at 10 µM lay in the range of 1.1 to 1.2.

Turning to `O=C(NO)c1ccc(Oc2ccc(C3CCCCC3)cc2)cc1` [Compound 182, 4-(4-cyclohexylphenoxy)-N-hydroxybenzamide], the fold induction at 10 µM fell in the range of 1.3 to 1.4.

Regarding `O=C(NO)c1ccc(Oc2ccc(C34CC5CC(CC(C5)C3)C4)cc2)cc1` [Compound 186, 4-(4-(Adamantan-1-yl)phenoxy)-N-hydroxybenzamide], the fold induction at 10 µM is no less than 2.

For `CC(C)c1ccc(Oc2ccc(C(=O)NO)cn2)cc1` [Compound 272, N-hydroxy-6-(4-isopropylphenoxy)nicotinamide], the fold induction at 10 µM was in the range of 1.7 to 2.

As to `CCC(C)(C)c1ccc(Oc2ccc(C(=O)NO)cn2)cc1` [Compound 273, N-hydroxy-6-(4-(tert-pentyl)phenoxy)nicotinamide], the fold induction at 10 µM lay in the range of 1.2 to 1.3.

Take `O=C(NO)c1ccc(Oc2ccc(C3CCCCC3)cc2)nc1` [Compound 284, 6-(4-Cyclohexylphenoxy)-N-hydroxynicotinamide]: the fold induction at 10 µM lay in the range of 1.7 to 2.

Consider `O=C(NO)c1ccc(Oc2ccc(C3CC4CCC3CC4)cc2)nc1` (stereo not drawn) [Compound 287, 6-(4-((1s,4s)-bicyclo[2.2.2]octan-2-yl)phenoxy)-N-hydroxynicotinamide], for which the fold induction at 10 µM was in the range of 1.1 to 1.2.

For the compound `O=C(NO)c1ccc(Oc2ccc(C34CC5CC(CC(C5)C3)C4)cc2)nc1` [Compound 288, 6-(4-((3r,5r,7r)-adamantan-1-yl)phenoxy)-N-hydroxynicotinamide], the fold induction at 10 µM was 1.7 to 2.

On to `CNC(=O)c1ccc(Oc2ccc(C(F)(F)F)cc2)nc1` [Compound 300, N-methyl-6-(4-(trifluoromethyl)phenoxy)nicotinamide], for which the fold induction at 10 µM is 1.1 to 1.2.

`CN(C)C(=O)c1ccc(Oc2ccc(C3CCCCC3)cc2)nc1` [Compound 334, 6-(4-cyclohexylphenoxy)-N,N-dimethylnicotinamide]: the fold induction at 10 µM is 1.3 to 1.4.

As to `O=C(NO)c1ccc(Oc2ccc(C34CC5CC(CC(C5)C3)C4)cc2)c(F)c1` [Compound 544, 4-(4-(Adamantan-1-yl)phenoxy)-3-fluoro-N-hydroxybenzamide], the fold induction at 10 µM was 1.4 to 1.7.

`O=C(NO)c1cnc(Oc2ccc(C3CCCCC3)cc2)c(F)c1` [Compound 644, 6-(4-Cyclohexylphenoxy)-5-fluoro-N-hydroxynicotinamide]: the fold induction at 10 µM was in the range of 1.1 to 1.2.

Regarding `Oc1ccc(C=Cc2cc(O)cc(O)c2)cc1` [RES, resveratrol, reference compound], the fold induction at 10 µM turned out to be 1.5.
